Values quoted from earlier work in patent US9040021B2, “Heterocyclic compounds as imaging probes of tau pathology” (GE Healthcare Limited, priority 2010, dated 2015).

Biological target: tau aggregates (Homo sapiens, UniProt P10636)
Conditions: in vitro; tau aggregates vs Aβ1-42 amyloid; fold selectivity

tau aggregates, sequence (P10636 whole entry): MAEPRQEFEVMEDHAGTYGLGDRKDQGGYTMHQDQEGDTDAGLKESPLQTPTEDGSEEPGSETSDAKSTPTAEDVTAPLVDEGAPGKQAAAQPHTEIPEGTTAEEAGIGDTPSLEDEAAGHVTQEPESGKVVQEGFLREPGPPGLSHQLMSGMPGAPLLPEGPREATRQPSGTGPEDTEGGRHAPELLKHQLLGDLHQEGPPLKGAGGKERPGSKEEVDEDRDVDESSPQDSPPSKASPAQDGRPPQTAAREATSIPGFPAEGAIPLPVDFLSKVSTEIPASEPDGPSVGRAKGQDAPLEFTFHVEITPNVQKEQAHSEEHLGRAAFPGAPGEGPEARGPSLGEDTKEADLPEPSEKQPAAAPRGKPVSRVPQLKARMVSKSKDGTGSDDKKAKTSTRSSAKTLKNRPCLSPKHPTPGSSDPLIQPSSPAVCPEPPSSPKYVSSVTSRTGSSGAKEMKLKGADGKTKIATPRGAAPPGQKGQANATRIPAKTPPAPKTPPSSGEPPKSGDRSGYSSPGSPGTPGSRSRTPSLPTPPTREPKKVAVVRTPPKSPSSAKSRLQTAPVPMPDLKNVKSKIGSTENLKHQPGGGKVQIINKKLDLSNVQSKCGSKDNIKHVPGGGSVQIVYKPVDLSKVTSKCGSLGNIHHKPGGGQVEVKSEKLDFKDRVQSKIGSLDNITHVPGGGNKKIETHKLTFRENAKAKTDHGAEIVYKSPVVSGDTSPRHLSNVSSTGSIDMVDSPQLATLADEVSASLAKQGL

Row | SMILES | selectivity for tau aggregates over Aβ1-42 amyloid
1 | CNc1ccc(-c2ccc3ccccc3n2)cc1 [BF-158, 2-(4-(methylamino)phenyl)quinoline] | threefold
2 | Nc1ccc(-c2ccc3ccccc3n2)cc1 [BF-170, 2-(4-(amino)phenyl)quinoline] | threefold
